Data on 33 compounds can be found in patent US9932340B2, “Substituted indoles” (AbbVie Inc., priority 2014, dated 2018).

SUV420H1 enzyme, sequence (Q4FZB7 whole entry): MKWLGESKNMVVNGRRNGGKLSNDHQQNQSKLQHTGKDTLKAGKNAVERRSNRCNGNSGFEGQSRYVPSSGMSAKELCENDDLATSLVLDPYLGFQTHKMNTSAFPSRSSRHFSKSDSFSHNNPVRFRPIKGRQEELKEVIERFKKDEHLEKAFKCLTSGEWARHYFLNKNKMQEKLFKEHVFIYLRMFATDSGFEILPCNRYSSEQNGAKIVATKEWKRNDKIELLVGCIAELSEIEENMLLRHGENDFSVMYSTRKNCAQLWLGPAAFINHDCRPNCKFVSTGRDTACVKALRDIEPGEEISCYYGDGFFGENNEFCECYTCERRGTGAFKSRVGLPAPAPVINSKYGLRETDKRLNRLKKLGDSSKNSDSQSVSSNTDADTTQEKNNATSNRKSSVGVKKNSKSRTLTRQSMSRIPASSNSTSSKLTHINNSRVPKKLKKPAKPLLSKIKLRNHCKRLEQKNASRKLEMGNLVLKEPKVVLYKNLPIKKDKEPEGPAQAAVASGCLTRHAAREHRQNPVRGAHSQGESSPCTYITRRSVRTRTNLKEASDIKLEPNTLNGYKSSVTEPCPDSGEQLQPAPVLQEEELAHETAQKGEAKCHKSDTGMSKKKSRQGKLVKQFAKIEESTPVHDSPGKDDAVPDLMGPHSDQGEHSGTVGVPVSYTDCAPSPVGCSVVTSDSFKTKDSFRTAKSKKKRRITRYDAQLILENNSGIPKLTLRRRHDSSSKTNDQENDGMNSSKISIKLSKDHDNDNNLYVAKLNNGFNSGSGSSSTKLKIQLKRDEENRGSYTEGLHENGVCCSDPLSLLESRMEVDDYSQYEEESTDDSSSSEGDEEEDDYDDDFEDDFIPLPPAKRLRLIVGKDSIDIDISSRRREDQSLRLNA

This assay concerns the target SUV420H1 enzyme (Homo sapiens, UniProt Q4FZB7). Description: TR-FRET SAH SUV420H1 enzyme inhibition assay. The assay is classed as biochemical. Particulars: Histone Peptide H4(8-30)me1 and SAM, overnight at room temp, TR-FRET detection of SAH, read-out: TR-FRET SAH_SUV420H1 IC50. The gist of the method: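 SUV420H1 (90 nM) preincubated 30 min with compound (3-fold dilutions, 50 to 0.00075 μM), then H4(8-30)me1 peptide 5 nM and SAM 4 nM added, overnight at room temp. SAH product detected by TR-FRET with Tb anti-SAH antibody and Oregon Green-SAH in RIPA buffer, 4 h; IC50 from Hill fit, asymptotes fixed 0-100%.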
In general terms: In TR-FRET formats the signal depends on donor and acceptor labels being close together.
As usually defined, the IC50 is the concentration that gives 50% inhibition. With `NCc1cc2cc(-c3cccc(C(=O)NC4CC4)c3)cc(Cn3cnc4c(N)ncnc43)c2[nH]1` [Example 51, 3-{2-(aminomethyl)-7-[(6-amino-9H-purin-9-yl)methyl]-1H-indol-5-yl}-N-cyclopropylbenzamide], the IC50 was determined as 294 nM.

On to `NCc1cc2cc(-c3ccccc3)cc(Cn3cnc4c(N)ncnc43)c2[nH]1` [Example 22, 9-{[2-(aminomethyl)-5-phenyl-1H-indol-7-yl]methyl}-9H-purin-6-amine], for which the IC50 was found to be 458 nM. Under `Cc1cc(C(=O)NCc2cc3cc(Cl)cc(Cn4cnc5c(N)ncnc54)c3[nH]2)n(C)n1` [Example 183, N-({7-[(6-amino-9H-purin-9-yl)methyl]-5-chloro-1H-indol-2-yl}methyl)-1,3-dimethyl-1H-pyrazole-5-carboxamide] stands 1780 nM.

Regarding `CC1CC1C(=O)NCc1cc2cc(Cl)cc(Cn3cnc4c(N)ncnc43)c2[nH]1` (stereo not drawn) [Example 109, N-({7-[(6-amino-9H-purin-9-yl)methyl]-5-chloro-1H-indol-2-yl}methyl)-2-methylcyclopropanecarboxamide], the IC50 is 10600 nM. Under `Cc1cc(C#N)ccc1C(=O)NCc1cc2cc(C3=CCNCC3)cc(Cn3cnc4c(N)ncnc43)c2[nH]1` [Example 305, N-({7-[(6-amino-9H-purin-9-yl)methyl]-5-(1,2,3,6-tetrahydropyridin-4-yl)-1H-indol-2-yl}methyl)-4-cyano-2-methylbenzamide] stands 36.7 nM.

Regarding `CC(C)c1oncc1C(=O)NCc1cc2cc(Cl)cc(Cn3cnc4c(N)ncnc43)c2[nH]1` [Example 187, N-({7-[(6-amino-9H-purin-9-yl)methyl]-5-chloro-1H-indol-2-yl}methyl)-5-(propan-2-yl)-1,2-oxazole-4-carboxamide], the half-inhibitory concentration (IC50) is 1870 nM. Regarding `Nc1ncnc2c1ncn2Cc1cc(Cl)cc2cc(C(N)c3ccccc3)[nH]c12` (stereo not drawn) [Example 194, 9-({2-[amino(phenyl)methyl]-5-chloro-1H-indol-7-yl}methyl)-9H-purin-6-amine], the 50% inhibitory concentration (IC50) was found to be 1950 nM.

For the compound `CC(=O)N1CCC=C(c2cc(Cn3cnc4c(N)ncnc43)c3[nH]c(CN)cc3c2)C1` [Example 16, 1-[5-{2-(aminomethyl)-7-[(6-amino-9H-purin-9-yl)methyl]-1H-indol-5-yl}-3,6-dihydropyridin-1(2H)-yl]ethanone], the IC50 was found to be 440 nM.

Consider `Cc1ccccc1-c1cc(Cn2cnc3c(N)ncnc32)c2[nH]c(CN)cc2c1` [Example 32, 9-{[2-(aminomethyl)-5-(2-methylphenyl)-1H-indol-7-yl]methyl}-9H-purin-6-amine], for which the IC50 stood at 3330 nM. In the case of `Nc1ncnc2c1ncn2Cc1cc(Cl)cc2cc(CNCc3ccccc3Cl)[nH]c12` [Example 210, 9-[(5-chloro-2-{[(2-chlorobenzyl)amino]methyl}-1H-indol-7-yl)methyl]-9H-purin-6-amine], the half-inhibitory concentration (IC50) was 3340 nM. In the case of `CC1(C(=O)NCc2cc3cc(Cl)cc(Cn4cnc5c(N)ncnc54)c3[nH]2)CCCCC1` [Example 129, N-({7-[(6-amino-9H-purin-9-yl)methyl]-5-chloro-1H-indol-2-yl}methyl)-1-methylcyclohexanecarboxamide], the IC50 is 28400 nM. Under `Nc1ncnc2c1ncn2Cc1cc(Cl)cc2cc(CNC(=O)c3ccc4[nH]ncc4c3)[nH]c12` [Example 346, N-({7-[(6-amino-9H-purin-9-yl)methyl]-5-chloro-1H-indol-2-yl}methyl)-1H-indazole-5-carboxamide] stands 4660 nM.

Take `N#Cc1cccc(-c2cc(Cn3cnc4c(N)ncnc43)c3[nH]c(CN)cc3c2)c1` [Example 39, 3-{2-(aminomethyl)-7-[(6-amino-9H-purin-9-yl)methyl]-1H-indol-5-yl}benzonitrile]: the IC50 worked out at 345 nM. Under `Nc1ncnc2c1ncn2Cc1cc(Cl)cc2cc(CNC(=O)c3c(F)cccc3Br)[nH]c12` [Example 226, N-({7-[(6-amino-9H-purin-9-yl)methyl]-5-chloro-1H-indol-2-yl}methyl)-2-bromo-6-fluorobenzamide] stands 275 nM; under `Nc1ncnc2c1ncn2Cc1cc(Cl)cc2cc(CNC(=O)c3ccc4[nH]ncc4c3F)[nH]c12` [Example 350, N-({7-[(6-amino-9H-purin-9-yl)methyl]-5-chloro-1H-indol-2-yl}methyl)-4-fluoro-1H-indazole-5-carboxamide], 2740 nM; under `CC(=O)N1CC=C(c2cc(Cn3cnc4c(N)ncnc43)c3[nH]c(CNC(=O)c4ccnnc4C)cc3c2)CC1` [Example 203, N-({5-(1-acetyl-1,2,3,6-tetrahydropyridin-4-yl)-7-[(6-amino-9H-purin-9-yl)methyl]-1H-indol-2-yl}methyl)-3-methylpyridazine-4-carboxamide], 27.7 nM.

Consider `CC(=O)N1CCC(c2cc(Cn3cnc4c(N)ncnc43)c3[nH]c(CNC(=O)c4ccc(C#N)cc4Cl)cc3c2)CC1` [Example 281, N-({5-(1-acetylpiperidin-4-yl)-7-[(6-amino-9H-purin-9-yl)methyl]-1H-indol-2-yl}methyl)-2-chloro-4-cyanobenzamide], for which the IC50 was determined as 141 nM. Next, `Nc1ncnc2c1ncn2Cc1cc(Cl)cc2cc(CNC(=O)c3cccc(F)c3)[nH]c12` [Example 224, N-({7-[(6-amino-9H-purin-9-yl)methyl]-5-chloro-1H-indol-2-yl}methyl)-3-fluorobenzamide]: 2770 nM; `COc1ccc(-c2cc(Cn3cnc4c(N)ncnc43)c3[nH]c(CNC(=O)c4c(C)noc4C)cc3c2)cc1` [Example 168, N-({7-[(6-amino-9H-purin-9-yl)methyl]-5-(4-methoxyphenyl)-1H-indol-2-yl}methyl)-3,5-dimethyl-1,2-oxazole-4-carboxamide]: 333 nM. `Nc1ncnc2c1ncn2Cc1cc(Cl)cc2cc(CNC(=O)c3ccccc3N3CCCCC3)[nH]c12` [Example 322, N-({7-[(6-amino-9H-purin-9-yl)methyl]-5-chloro-1H-indol-2-yl}methyl)-2-(piperidin-1-yl)benzamide]: the IC50 stood at 29900 nM. Next, `Cc1nnccc1C(=O)NCc1cc2cc(C3=CCN(S(C)(=O)=O)CC3)cc(Cn3cnc4c(N)ncnc43)c2[nH]1` [Example 202, N-({7-[(6-amino-9H-purin-9-yl)methyl]-5-[1-(methylsulfonyl)-1,2,3,6-tetrahydropyridin-4-yl]-1H-indol-2-yl}methyl)-3-methylpyridazine-4-carboxamide]: 64.1 nM; `N#Cc1cc(Cl)c(C(=O)NCc2cc3cc(Cl)cc(Cn4cnc5c(N)ncnc54)c3[nH]2)c(Cl)c1` [Example 283, N-({7-[(6-amino-9H-purin-9-yl)methyl]-5-chloro-1H-indol-2-yl}methyl)-2,6-dichloro-4-cyanobenzamide]: 52.6 nM; `Nc1ncnc2c1ncn2Cc1cc(Cl)cc2cc(CNC(=O)C3CCCO3)[nH]c12` (stereo not drawn) [Example 113, N-({7-[(6-amino-9H-purin-9-yl)methyl]-5-chloro-1H-indol-2-yl}methyl)tetrahydrofuran-2-carboxamide]: over 50000 nM.

With `NCc1cc2cc(-c3ccc(C(=O)NC4CC4)cc3)cc(Cn3cnc4c(N)ncnc43)c2[nH]1` [Example 50, 4-{2-(aminomethyl)-7-[(6-amino-9H-purin-9-yl)methyl]-1H-indol-5-yl}-N-cyclopropylbenzamide], the IC50 was 223 nM. Under `NCc1cc2cc(C3=CCNCC3)cc(Cn3cnc4c(N)ncnc43)c2[nH]1` [Example 13, 9-{[2-(aminomethyl)-5-(1,2,3,6-tetrahydropyridin-4-yl)-1H-indol-7-yl]methyl}-9H-purin-6-amine] stands 135 nM; under `Nc1ncnc2c1ncn2Cc1cccc2cc[nH]c12` [Example 5, 9-(1H-indol-7-ylmethyl)-9H-purin-6-amine], 13900 nM; under `Cn1cc(-c2ccc(Cn3cnc4c(N)ncnc43)c3[nH]c(CN)cc23)cn1` [Example 68, 9-{[2-(aminomethyl)-4-(1-methyl-1H-pyrazol-4-yl)-1H-indol-7-yl]methyl}-9H-purin-6-amine], 972 nM. Under `Cc1cc2cc(C(=O)NCc3cc4cc(Cl)cc(Cn5cnc6c(N)ncnc65)c4[nH]3)ccc2o1` [Example 364, N-({7-[(6-amino-9H-purin-9-yl)methyl]-5-chloro-1H-indol-2-yl}methyl)-2-methyl-1-benzofuran-5-carboxamide] stands 3280 nM; under `Nc1ncnc2c1ncn2Cc1cc(Cl)cc2cc(CNC(=O)c3cnccn3)[nH]c12` [Example 193, N-({7-[(6-amino-9H-purin-9-yl)methyl]-5-chloro-1H-indol-2-yl}methyl)pyrazine-2-carboxamide], 20000 nM; under `Nc1ncnc2c1ncn2Cc1cc(Cl)cc2cc(CNC(=O)CC3CCCC3)[nH]c12` [Example 121, N-({7-[(6-amino-9H-purin-9-yl)methyl]-5-chloro-1H-indol-2-yl}methyl)-2-cyclopentylacetamide], 2560 nM. As to `Nc1ncnc2c1ncn2Cc1cc(Cl)cc2cc(CNC(=O)c3ccc(F)cc3)[nH]c12` [Example 223, N-({7-[(6-amino-9H-purin-9-yl)methyl]-5-chloro-1H-indol-2-yl}methyl)-4-fluorobenzamide], the IC50 amounted to 8250 nM. Take `Cc1noc(C2CC2)c1C(=O)NCc1cc2cc(Cl)cc(Cn3cnc4c(N)ncnc43)c2[nH]1` [Example 190, N-({7-[(6-amino-9H-purin-9-yl)methyl]-5-chloro-1H-indol-2-yl}methyl)-5-cyclopropyl-3-methyl-1,2-oxazole-4-carboxamide]: the IC50 was 910 nM. Next, `NCc1cc2cc(-c3cccc(C(=O)N4CCOCC4)c3)cc(Cn3cnc4c(N)ncnc43)c2[nH]1` [Example 53, (3-{2-(aminomethyl)-7-[(6-amino-9H-purin-9-yl)methyl]-1H-indol-5-yl}phenyl)(morpholin-4-yl)methanone]: 590 nM.
